Results from patent US7122643B2, “Cytostatic lanthanum compounds” (Faustus Forschungs Cie. Translational Cancer Research GmbH, priority 2001, dated 2006).

Legend:
[1] = tested on: over 50 human tumour cell lines
[2] = tested on: 13 human tumour xenografts and 10 human tumour cell lines
[3] = mean over 13 human tumour xenografts and 10 human tumour cell lines

In the case of “[tris(1,10-phenantrolin)lanthanum(III)]trithiocyanate”, the “Cytostatic effectiveness (in words)” value ([1]; over 50 human tumour cell lines, 48-h) is reported as “Good effectiveness”, the “Activity relative to average of the panel” value ([1]; some melanoma and kidney cell carcinoma cell lines) is reported as “Above average activities” and the “Cytostatic activity (in words)” value ([2]; 13 human tumour xenografts and 10 human tumour cell lines) is reported as “good cytostatic activity”. The “Activity relative to average of the panel” value ([2]; mammary carcinoma cell lines MCF7, MDA468A, parvicellular bronchial carcinoma cell line DMS 114, one each of melanoma, ovarian, kidney cell and non-parvicellular bronchial carcinoma xenografts) was “Above average activities”, the “Mean IC50” value [2, 3] was 3.60 µg/mL and the “Mean IC90” value [2, 3] was 12.1 µg/mL. For the same substance, the Tumour type selectivity ([2]; prostate and colorectal carcinoma) was “selectivity for prostate and colorectal carcinoma”, the IC50 ([2]; read-out: Mean IC50, mean over 13 human tumour xenografts and 10 human tumour cell lines) was 4.21 µM and the IC90 ([2]; read-out: Mean IC90, mean over 13 human tumour xenografts and 10 human tumour cell lines) was 14.2 µM.
